Results on 1 compound are retold here after patent US20250179499A1, “USE OF CDK16 AS TARGET IN PREPARATION OF MEDICINE FOR TREATING TRIPLE-NEGATIVE BREAST CANCER” (SHENZHEN TYERCAN BIO-PHARM CO., LTD., priority 2022, published 2025).

One assay concerns MDA-MB-231 xenografts. Put plainly: Growth of MDA-MB-231 xenografts transplanted in situ into mammary gland fat pads. It counts as in vivo, mice. The conditions noted are these: Rebastinib 80 mg/kg by gavage, 13 days, vs solvent control; FIG. 5A-5D. The source says:
Lentivirus-infected breast tumor cells were resuspended with 50% of FBS (diluted with PBS), added with Matrigel at a volume ratio of 1:1, then added with 0.04% of trypan blue, mixed well, and placed on ice until inoculation into mice. After the mouse was anesthetized, it was placed on an experimental table with its abdomen facing upwards, and a “Y”-shaped opening was cut in its abdominal epidermis along a midline and the direction of the lower limbs on both sides with scissors (without cutting the peritoneum). The opening was peeled off to both sides with cotton swabs and tweezers to expose the fourth pair of mammary gland fat pads, and the epidermis was fixed with needles. 10-20 μL of a cell suspension was drawn up with a syringe and injected into the mammary gland fat pads. Finally, the skin on both sides was closed and sutured with surgical staples. The surgical staples could be removed after the wound healed. Since the surgery, the occurrence of tumors in the mouse was observed and recorded every day. After about one week, the length and width of the tumor were measured with a vernier caliper and recorded, and the change in the weight of the mouse was monitored. The tumor volume was calculated by the following formula: Volume (mm^3)=length×width×width×0.52.
(§1) The tumor cell line was transplanted in situ as that in Example 1. When the tumor size reached […], the mice were divided into a control group (solvent) and a group administrated with Rebastinib (80 mg/kg), with 3 mice in each group. The mice were administrated by gavage continuously (administrated with MDA-MB-231 xenografts for 13 days and administrated with PDX for 11 days), during which the mice were weighed every day, and the tumor size was measured every three days. After completion of the administration, the mice were sacrificed and the tumors were weighed.

The next assay relates to TNBC-type PDX tumors. The experiment in a line: Growth of TNBC-type PDX tumors. The format is in vivo, NSG mice. The conditions noted are these: Rebastinib 80 mg/kg by gavage, 11 days, vs solvent control; FIG. 5H-5K. The protocol: Primary tumor cells from the patient infected with the lentivirus were in-situ injected into the fourth pair of mammary gland fat pads of the NSG mice according to the method described in 3, and the occurrence of tumors was observed and recorded.
as §1

The test system of a further assay is TNBC-type PDOs. Put plainly: Growth of TNBC PDO (patient-derived organoids in Matrigel). The conditions noted are these: 1 μM and 5 μM. The format is cell-based, human. The protocol:
The primary tumor cells from the patient infected with the lentivirus were resuspended with pre-cooled Matrigel to a concentration of 2× 10^4 cells/50 μL Matrigel. The Matrigel was added dropwise into a 24-well culture plate and allowed to stand at 37° C. for 15-20 min. After confluence, the cells were added with a breast cancer tumor organoid culture medium for culture, the culture medium was replaced by a fresh culture medium every three days, and the number and size of organoid growth were counted.
Similar to the PDO model establishment operation in Example 1, the primary tumor cells derived from TNBC patients were resuspended with pre-cooled Matrigel to a concentration of 2×10^4 cells/50 μL Matrigel. The Matrigel was added dropwise into a 24-well culture plate and allowed to stand at 37° C. for 15-20 min. After confluence, the cells were added with a breast cancer tumor organoid culture medium for culture, and the culture medium was replaced by a fresh culture medium every three days. The PDOs were divided into 6 groups, including an untreated group, a solvent control group, groups administrated with low and high doses of Abemaciclib (with doses of 1 μM and 5 μM, respectively), and groups administrated with low and high doses of Rebastinib (with doses of 1 μM and 5 μM, respectively). After three days of culture, the PDOs were started to be treated by addition of a drug according to groups. The size and number of organoids were counted after one week.

For the compound `CNC(=O)c1cc(Oc2ccc(NC(=O)Nc3cc(C(C)(C)C)nn3-c3ccc4ncccc4c3)c(F)c2)ccn1` [Rebastinib], in the assay with MDA-MB-231 xenografts, the “sizes of MDA-MB-231 tumors” value was “significantly inhibits”, the “volumes of MDA-MB-231 tumors” value is “significantly inhibits” and the “weights of MDA-MB-231 tumors” value is listed as “significantly inhibits”. Also, in the assay on TNBC-type PDX tumors, the “sizes of TNBC-type PDX tumors” value is recorded as “significantly inhibits”, the “volumes of TNBC-type PDX tumors” value is recorded as “significantly inhibits” and the “weights of TNBC-type PDX tumors” value is on record as “significantly inhibits”. Further, the “sizes of TNBC-type PDOs” value with TNBC-type PDOs (counted after one week, FIG. 5E) was “significantly inhibits”. Also, the “number of TNBC-type PDOs” value with TNBC-type PDOs (counted after one week, FIG. 5F) is “significantly reduces”. Further, in the assay on TNBC-type PDOs (FIG. 5G), the “apoptosis of TNBC-type PDOs” value is reported as “promotes” and the “proliferation of TNBC-type PDOs” value is given as “significantly inhibits”.
